Test results published in patent publication US10765675B2, “Compositions and methods for treating Ewing family tumors” (priority 2015, dated 2020).
Counter-ions that a name gives are not always drawn.

Tests used:
sarcomas = details: cited from earlier work
MB231-Bo cancer cells = details: same doses as tested on TC-32 and TC-71 cells
Description: (§2) The TC-32 cell line was derived from a newly diagnosed PNET patient and the TC-71 cell line was derived from a tumor recurrent after chemotherapy in a Ewing's sarcoma patient.
(§3) The cells were cultured in DMEM media supplemented with 10% FBS, 1% L-glutamate, 1% sodium pyruvate, 1% penicillin/streptomycin, and 1% non-essential amino acids in a humidified atmosphere at 37° C. and in 5% CO2. The ratio of cells to well surface and media volume was kept constant in all experiments.
(§4) Treated cells were imaged with an IVIS200 system (Xenogen Corporation, Alameda, Calif.) using the bioluminescent imaging function. An average of three kinetic bioluminescent acquisitions was obtained within 5 min Regions of interest were automatically drawn over wells and quantified with Living Image Software version 2.50.1. Data was analyzed based on total photon flux emission minus the background photon flux of blank wells. Three separate experiments were performed, with six replicate wells for each data point.

3T3 fibroblast cells = details: same doses as tested on TC-32 and TC-71 cells
Description: as §2, §3, §4

[1] = system: DNA damage and DNA repair pathway genes in TC-32 cells; details: 12 h
Excerpt: (§5) Housekeeping genes were included on the array to normalize RNA amounts.

[2] = system: DNA damage and DNA repair pathway genes in TC-71 cells; details: 12 h
Excerpt: as §5

TC-32 cells = assay: cells; details: Homo sapiens, TC-32, 24 h, read-out: EC50 (concentration of drug that inhibits growth of the tumor cells by 50% as compared to vehicle-treated control)
Excerpt: (§1) The combination index (CI) accounts for the dose response of single drugs to determine the combination effect. […] Enzyme Regul. 22:27-55. The equation for calculating CI is as follows: […]

TC-71 cells = assay: cells; details: Homo sapiens, TC-71, 24 h, read-out: EC50 (concentration of drug that inhibits growth of the tumor cells by 50% as compared to vehicle-treated control)
Excerpt: as §1

[3] = metformin 500-1000 mg/day; cited from earlier work

Row | SMILES | Side-effects limiting clinical utility (sarcomas; clinical use) | Share of sarcomas that respond to the drug (sarcomas; standard systemic therapy) [%] | Cytotoxicity (MB231-Bo cancer cells) | Cytotoxicity (3T3 fibroblast cells) | Expression of 9 DNA repair genes (PRKDC, LIG4, MPG, ACTB, NEIL2, MLH1, RPA3, ATXN3, ERCC5) [1] | Expression of 11 DNA repair genes (MMS19, LIG4, B2M, RFC1, PARP2, BRCA2, TREX1, XPC, RAD23A, MUTYH, APEX1) [2] | EC50 (TC-32 cells) [mM] | EC50 (TC-71 cells) [mM] | Plasma levels [3] | Plasma levels, molar equivalent [3] [µM]
1 | COc1cccc2c1C(=O)c1c(O)c3c(c(O)c1C2=O)C[C@@](O)(C(=O)CO)C[C@@H]3O[C@H]1C[C@H](N)[C@H](O)[C@H](C)O1 [doxorubicin] | irreversible cardiac toxicity | 20 |  |  |  |  |  |  |  | 
2 | Cc1ccc(NC(=O)c2ccc(CN3CCN(C)CC3)cc2)cc1Nc1nccc(-c2cccnc2)n1 [imatinib, imatinib mesylate] |  |  | did not show any cytotoxicity | did not show any cytotoxicity | significantly up-regulated | significantly up-regulated |  |  |  | 
3 | CN(C)C(=N)N=C(N)N [metformin, Metformin hydrochloride] |  |  | did not show any cytotoxicity | did not show any cytotoxicity |  |  | 11.8 | 11.6 | about 1.1 mg/L | 7
